# Patent publication US9234178B2, “Differentiation of human pluripotent stem cells” (Janssen Biotech, Inc., priority 2008, dated 2016)
# Legend:
# Type in all cases: cell-based, human
# insulin-producing cells [1] = assay: Kinetics of CDK inhibitor-induced MAFA expression, PCR (Example 6)
# Procedure: (§1) DMEM/F12+1% B27 for seven days (Stage 6), then • g. Treatment with Accutase for 5 minutes, followed by scraping to remove any remaining attached cells. The cell suspension was then passed through a 40 μm cell strainer. The cells retained on the strainer were removed by rinsing in basal media and cultured in suspension on Ultra-Low culture plates in DMEM-High Glucose (Catalogue#11995-073, Invitrogen, Ca)+1% B27+20 ng/ml of activin A (AA) 2 μm of CDK inhibitor III (Catalog#217714, Calbiochem, Ca) for 1-8 days (Stage 7).
# Samples were collected for PCR analysis at days 1, 2, 3, and 4.
# islet-like clusters = assay: CDK inhibitor III treatment of islet-like clusters in suspension (Stage 7): PCR and dithizone staining (Example 4); settings: 1 μm
# Procedure: The medium was changed daily.
# After stage 6, the cells were treated for 5 mins at room temperature with 1× accutase (Sigma, Mo.). The accutase was removed, and DMEM/12+1% B27 was added to the cells. The attached cells were removed using a cell scarper and gently resuspended and passed through a 40 μm cell strainer. The cells retained on the strainer were removed by rinsing in basal media and cultured in suspension on Ultra-Low culture plates (Catalogue#3471, Corning, Ma). […] Cells treated with vehicle were included as controls. Samples were collected at days 7 through 10 for PCR analysis and dithizone staining. The cells cultured in suspension according to the methods outlined in this example assumed a morphology similar to pancreatic islet clusters.
# insulin-producing cells [2] = assay: FACS analysis of insulin producing cells (Example 5); settings: 1 μM for 5 days
# Procedure: as §1, with “(AA) 1” for “(AA) 2”, “for 5” for “for 1-8”
# Islet-like clusters were dispersed into single cells using TrypLE Express (Invitrogen, Carlsbad, Calif.) and washed in cold PBS. For fixation, the cells were resuspended in 200-300 μl Cytofix/Cytoperm Buffer (BD 554722, BD, Ca) and incubated for 30 min at 4° C. Cells were washed two times in 1 ml Perm/Wash Buffer Solution (BD 554723) and resuspended in 100 μl staining/blocking solution containing 2% normal goat serum in Perm/Wash buffer. For flow cytometric analysis, cells were stained with the following primary antibodies: Anti-Insulin (Rabbit mAb, Cell Signaling No. C279; 1:100 dilution); Anti-Glucagon (Mouse Mab, Sigma No. G2654, 1:100); Anti-Synaptophysin (Rabbit Polyclonal antibody, DakoCytomation No A0010, 1:50). […] Cells were washed at least once in Perm/Wash buffer and analyzed using BD FACSArray. […]
# [3] = 2 μm, days 1-4 of stage 7, increased as a function of time
# [4] = four days after removal of the compound
# [5] = Stage 7, days 7 through 10, PCR
smiles,measurement,setting,value
"Nc1nc(Nc2ccc(S(N)(=O)=O)cc2)nn1C(=S)Nc1c(F)cccc1F [PubChem ID#5330812, 5-Amino-3-((4-(aminosulfonyl)phenyl)amino)-N-(2,6-difluorophenyl)-1H-1,2,4-triazole-1-carbothioamide]",MAFA expression,insulin-producing cells [1]; [3],significant increase
same,insulin expression,insulin-producing cells [1]; [3],significant increase
same,MAFA expression after removal of CDK inhibitor,insulin-producing cells [1]; [4],significant drop
same,insulin expression after removal of CDK inhibitor,insulin-producing cells [1]; [4],significant drop
same,expression of markers associated with the pancreatic endocrine lineage,islet-like clusters; [5],increased the expression
same,expression of the pro-insulin transcription factor MAFA,islet-like clusters; [5],increased the expression
same,dithazone (DTZ) staining of clusters,"islet-like clusters; Stage 7, versus untreated clusters",more reddish staining pattern
same,percentage of poly hormonal (insulin and glucagon positive) cells,"insulin-producing cells [2]; Stage 7, versus vehicle",decreased
same,single hormonal insulin positive cells,"insulin-producing cells [2]; Stage 7, vehicle 3%",8%
